Consider 14 compounds from patent publication US9399623B2, “Quinoline derivatives and their use in neurodegenerative diseases” (Merck Patent GmbH, priority 2014, dated 2016).

Assay [1] deals with T1, P2X7 (Homo sapiens, UniProt Q99572).
T1 sequence (Q99572 1-595): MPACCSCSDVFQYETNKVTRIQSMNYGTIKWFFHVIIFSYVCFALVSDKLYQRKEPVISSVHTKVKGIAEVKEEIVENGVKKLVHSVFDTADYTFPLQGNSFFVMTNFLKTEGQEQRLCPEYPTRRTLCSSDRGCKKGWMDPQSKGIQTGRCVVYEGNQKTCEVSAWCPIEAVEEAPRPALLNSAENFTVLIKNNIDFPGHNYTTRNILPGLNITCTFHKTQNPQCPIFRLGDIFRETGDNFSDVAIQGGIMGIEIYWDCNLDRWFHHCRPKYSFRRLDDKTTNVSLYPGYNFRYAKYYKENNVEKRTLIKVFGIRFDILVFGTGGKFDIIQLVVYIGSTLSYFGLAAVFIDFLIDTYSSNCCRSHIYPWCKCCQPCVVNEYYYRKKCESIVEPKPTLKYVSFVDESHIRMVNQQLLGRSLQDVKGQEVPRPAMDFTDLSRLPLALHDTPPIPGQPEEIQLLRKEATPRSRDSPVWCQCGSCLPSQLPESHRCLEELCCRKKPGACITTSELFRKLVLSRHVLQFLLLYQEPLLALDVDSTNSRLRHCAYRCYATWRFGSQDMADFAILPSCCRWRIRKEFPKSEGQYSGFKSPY
Briefly: Pore permeation assay (YO PRO dye uptake, BzATP-induced). Type of assay: cell-based. Also on record: expressed in transfected cells; host or cells: HEK293. Particulars: HEK293 transfected with human P2X7 receptor; YO PRO dye 1 uM, BzATP 10 uM; read-out: hP2X7 IC50. In short, it runs like this:
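HEK293 cells overexpressing human P2X7, plated overnight at 37 C, preincubated 20 min at room temperature with compound (10-point series from 2.5 uM) in HEPES-buffered saline pH 7.4 with 0.1 mM CaCl2. Then 10 uM BzATP plus 1 uM YO PRO added; dye uptake read by fluorescence after 30 min at room temperature.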

The target of assay [2] is T1, P2X7. Put plainly: IL-1β release assay in THP-1 cells (sandwich ELISA). Type of assay: cell-based. The conditions noted are these: PMA, LPS primed, stimulated with 0.8 mM BzATP, mature IL-1β release, read-out: hTHP-1/IL-ib IC50. Further details: release of mature IL-1β in the culture medium of THP-1 cells; endogenous in cells; host or cells: THP-1 cells (PMA-differentiated, LPS-primed). In short, it runs like this: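 THP-1 cells differentiated with 0.5 μM PMA and primed 4 h with 10 ng/ml LPS at 37° C, then preincubated 20 min with compound. Stimulated with 0.8 mM BzATP for 30 min; mature IL-1β released into the supernatant quantified by sandwich ELISA.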

With `CN(C)[C@@H]1CCN(c2ccc3c(C(=O)NCC4(O)CCC(F)(F)CC4)c(Cl)ccc3n2)C1` [Compound 23, 6-Chloro-2-((R)-3-dimethylamino-pyrrolidin-1-yl)-quinoline-5-carboxylic acid (4,4-difluoro-1-hydroxy-cyclohexylmethyl)-amide], the IC50 on P2X7 [1] and at P2X7 [2] was 10 to 100 nM in each case.
Take `CCOC(=O)C1CCCN(c2ccc3c(C(=O)NCC4CCC(F)(F)CC4)c(Cl)ccc3n2)C1` (stereo not shown) [Compound 55, 1-{6-Chloro-5-[(4,4-difluoro-cyclohexylmethyl)-carbamoyl]-quinolin-2-yl}-piperidine-3-carboxylic acid ethyl ester]: the IC50 at P2X7 [1] is 10 to 100 nM; on P2X7 [2], greater than 1000 nM.
Turning to `COCCNc1ccc2c(C(=O)NCC3CCC(F)(F)CC3)c(Cl)ccc2n1` [Compound 68, 6-Chloro-2-(2-methoxy-ethylamino)-quinoline-5-carboxylic acid (4,4-difluoro-cyclohexyl methyl)-amide], the IC50 on P2X7 [1] lay in the range of 10 to 100 nM; on P2X7 [2], 500 to 999 nM.
In the case of `O=C(NCC1CCC(F)(F)CC1)c1c(Cl)ccc2nc(N3CC[C@H](CCO)C3)ccc12` [Compound 11, 6-Chloro-2-((R)-3-hydroxyethyl-pyrrolidin-1-yl)-quinoline-5-carboxylic acid (4,4-difluoro-cyclohexylmethyl)-amide], the IC50 at P2X7 [1] was less than 10 nM; on P2X7 [2], 101 to 500 nM.
As for `O=C(NCC1(O)CCCCCC1)c1c(Cl)ccc2nc(N3CCCC3)ccc12` [Compound 25], the IC50 on P2X7 [1] and at P2X7 [2] was 10 to 100 nM in each case.
On to `O=C(NCC1CCC(F)(F)CC1)c1c(Cl)ccc2ncccc12` [Compound 78], for which the values for the IC50 at P2X7 [1] and on P2X7 [2] were 101 to 500 nM and 10 to 100 nM, respectively.
As for `C[C@@H]1CCC[C@](O)(CNC(=O)c2c(Cl)ccc3nc(N4CCC(N5CCCC5)C4)ccc23)C1` (stereo partly drawn) [Compound 13, 6-Chloro-2-(3-pyrrolidinyl-pyrrolidin-1-yl)-quinoline-5-carboxylic acid ((1R,3R)-1-hydroxy-3-methyl-cyclohexylmethyl)-amide], the IC50 on P2X7 [1] and at P2X7 [2] was less than 10 nM in each case.
For `CNC1CCN(c2ccc3c(C(=O)NCC4CCC(F)(F)CC4)c(Cl)ccc3n2)C1` (stereo not shown) [Compound 17, 6-Chloro-2-(3-methylamino-pyrrolidin-1-yl)-quinoline-5-carboxylic acid (4,4-difluoro-cyclohexylmethyl)-amide], the IC50 at P2X7 [1] is less than 10 nM; at P2X7 [2] it was 10 to 100 nM.
For `O=C(NCC1(O)CCCC(F)(F)C1)c1c(Cl)ccc2nc(N3CCC3)ccc12` (stereo not shown) [Compound 54, 2-(Azetidin-1-yl)-6-chloro-quinoline-5-carboxylic acid (3,3-difluoro-1-hydroxycyclohexylmethyl)-amide], in that order: 10 to 100 nM and 101 to 500 nM.
For `O=C(NCC1CCCC(F)(F)C1)c1c(Cl)ccc2nc(N3CCC(F)C3)ccc12` (stereo not shown) [Compound 39, 6-Chloro-2-(3-fluoropyrrolidin-1-yl)-quinoline-5-carboxylic acid (3,3-difluoro-cyclohexylmethyl)-amide], in that order: 10 to 100 nM and 10 to 100 nM.
For the compound `O=C(NCC1CCC(F)(F)CC1)c1c(Cl)ccc2nc(C3CCOCC3)ccc12` [Compound 47, 6-Chloro-2-(tetrahydro-pyran-4-yl)-quinoline-5-carboxylic acid (4,4-difluoro-cyclohexyl methyl)-amide], the IC50 on P2X7 [1] fell in the range of 10 to 100 nM; on P2X7 [2], 101 to 500 nM.
Regarding `CC(C)(C)OC(=O)N1CC=C(c2ccc3c(C(=O)NCC4CCC(F)(F)CC4)c(Cl)ccc3n2)CC1` [Compound 51, 4-{6-Chloro-5-[(4,4-difluoro-cyclohexylmethyl)-carbamoyl]-quinolin-2-yl}-3,6-dihydro-2H-pyridine-1-carboxylic acid tert-butyl ester], the IC50 lay in the range of 10 to 100 nM at P2X7 [1] and 101 to 500 nM at P2X7 [2].
For `O=C(NCC1CCC(F)(F)CC1)c1c(Cl)ccc2nc(N3CCC(F)(F)C3)ccc12` [Compound 58], the IC50 on P2X7 [1] lay in the range of 10 to 100 nM; at P2X7 [2], 101 to 500 nM.
As for `O=C(NCC1CCC(F)(F)CC1)c1c(Cl)ccc2nc(CCCO)ccc12` [Compound 64, 6-Chloro-2-(3-hydroxy-propyl)-quinoline-5-carboxylic acid (4,4-Difluorocyclohexyl methyl)-amide], the IC50 on P2X7 [1] was 10 to 100 nM; at P2X7 [2], 101 to 500 nM.
